Among the data in patent US11795162B2, “Modulators of the estrogen-related receptor” (Saint Louis University, priority 2017, dated 2023) are ΔTm values, retold here.

For this test, the target named is T1, ERR gamma protein (Homo sapiens, UniProt P62508).
T1 sequence (P62508 1-458): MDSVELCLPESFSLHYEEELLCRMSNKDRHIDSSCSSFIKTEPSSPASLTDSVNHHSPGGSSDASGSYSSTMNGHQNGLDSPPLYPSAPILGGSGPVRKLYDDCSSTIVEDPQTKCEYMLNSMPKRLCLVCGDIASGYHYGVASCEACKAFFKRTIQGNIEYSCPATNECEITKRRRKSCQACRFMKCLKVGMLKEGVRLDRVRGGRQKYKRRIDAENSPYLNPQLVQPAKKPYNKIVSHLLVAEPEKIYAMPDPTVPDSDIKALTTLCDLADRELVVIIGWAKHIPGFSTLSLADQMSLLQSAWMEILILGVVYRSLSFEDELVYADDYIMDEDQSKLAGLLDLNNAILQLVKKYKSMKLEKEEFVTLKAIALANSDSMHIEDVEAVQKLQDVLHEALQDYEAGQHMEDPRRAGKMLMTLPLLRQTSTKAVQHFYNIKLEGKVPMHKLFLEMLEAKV
The experiment in a line: Protein thermal shift assay. The conditions noted are these: compound at 20 μM; ERR gamma protein 0.1 mg/mL, SYPRO-Orange; read-out: T.S. (thermal shift) range. Type of test: binding. How it is done:
Six replicate reactions were set up and run in Applied Biosystems Quantstudio 7 Real-Time PCR system. Data were collected at a ramp rate of 0.05° C./s from 24° C. through 95° C. and analyzed using Protein Thermal Shift Software 1.3.

The structures appear in SMILES notation.

Take `O=C(NCc1ccccc1)c1ccc(-c2ccc(Cl)cc2)s1` [Compound 2, N-benzyl-5-(4-chlorophenyl)thiophene-2-carboxamide]: the ΔTm at 20 µM lay within 2 to 4 °C.

Turning to `Clc1ccc(-c2ccc(CNCc3ccccc3)s2)cc1` [Compound 3, N-benzyl-1-(5-(4-chlorophenyl)thiophen-2-yl)methanamine], the ΔTm at 20 µM lay within 0 to 2 °C.

For `CC(C)c1ccc(-c2ccc(COc3ccccc3)s2)cc1` [Compound 4, 2-(4-isopropylphenyl)-5-(phenoxymethyl)thiophene], the ΔTm at 20 µM fell in the range of 0 to 2 °C.

Consider `CC(C)c1ccc(NC(=O)c2cc(-c3ccc(O)cc3)[nH]n2)cc1` [Compound 5, 3-(4-hydroxyphenyl)-N-(4-isopropylphenyl)-1H-pyrazole-5-carboxamide], for which the ΔTm at 20 µM lay within 2 to 4 °C.

In the case of `CC(C)c1cccc(-c2ccc(C(=O)Nc3ccc(O)cc3)s2)c1` [Compound 6, N-(4-hydroxyphenyl)-5-(3-isopropylphenyl)thiophene-2-carboxamide], the ΔTm at 20 µM was 0 to 2 °C.

For `O=C(Nc1cccc(F)c1)c1ccc(-c2ccc(O)cc2)s1` [Compound 7, N-(3-fluorophenyl)-5-(4-hydroxyphenyl)thiophene-2-carboxamide], the ΔTm at 20 µM was greater than 4 °C.

With `O=C(Nc1ccc(O)cc1)c1coc(-c2ccsc2)n1` [Compound 10, N-(4-hydroxyphenyl)-2-(thiophen-3-yl)oxazole-4-carboxamide], the ΔTm at 20 µM lay in the range of 0 to 2 °C.

For `O=C(Nc1cccc(F)c1)c1ncc(-c2ccc(O)cc2)s1` [Compound 11, N-(3-fluorophenyl)-5-(4-hydroxyphenyl)thiazole-2-carboxamide], the ΔTm at 20 µM was greater than 4 °C.

As to `O=C(Nc1ccccc1F)c1ccc(-c2ccc(C(=O)C(F)(F)F)cc2)s1` [Compound 12, N-(2-fluorophenyl)-5-(4-(2,2,2-trifluoroacetyl)phenyl)thiophene-2-carboxamide], the ΔTm at 20 µM was 0 to 2 °C.

Turning to `CC(C)c1ccc(-c2ccc(C(=O)Nc3ccc(O)cc3)s2)cc1` [Compound 13], the ΔTm at 20 µM lay within 0 to 2 °C.

On to `O=C(Nc1ccc(F)cc1)c1ccc(-c2ccc(B(O)O)cc2)s1` [Compound 17], for which the ΔTm at 20 µM lay in the range of 2 to 4 °C.

With `COc1ccc(NC(=O)c2ccc(-c3ccc(N)cc3)s2)cc1` [Compound 18], the ΔTm at 20 µM fell in the range of 0 to 2 °C.

For the compound `Cc1cccc(NC(=O)c2ccc(-c3ccc(O)cc3)s2)c1` [Compound 19], the ΔTm at 20 µM lay within 0 to 2 °C.

With `O=C(Nc1cccc(F)c1)c1ncc(-c2cccc(O)c2)s1` [Compound 21], the ΔTm at 20 µM was greater than 4 °C.

On to `N#Cc1ccc(NC(=O)c2ccc(-c3cccc(O)c3)s2)cc1` [Compound 22], for which the ΔTm at 20 µM is 0 to 2 °C.

In the case of `COc1ccc(NC(=O)c2ccc(-c3ccc(O)cc3)s2)cc1` [Compound 29], the ΔTm at 20 µM is 0 to 2 °C.

With `O=C(Nc1ccc2ccccc2c1)c1ccc(-c2ccc(O)cc2)s1` [Compound 31], the ΔTm at 20 µM fell in the range of 0 to 2 °C.

Turning to `Nc1ccc(-c2ccc(C(=O)NCc3cccc(F)c3)o2)cc1` [Compound 36], the ΔTm at 20 µM lay within 0 to 2 °C.

Regarding `O=C(Nc1ccc2ncsc2c1)c1ccc(-c2ccc(O)cc2)o1` [Compound 41], the ΔTm at 20 µM lay within 2 to 4 °C.

For the compound `O=C(Nc1ccc2ncsc2c1)c1ccc(-c2cccc(O)c2)o1` [Compound 42], the ΔTm at 20 µM lay within 0 to 2 °C.

`O=C(Nc1cccc(B(O)O)c1)c1ccc(-c2ccccc2F)s1` [Compound 44]: the ΔTm at 20 µM lay within 2 to 4 °C.

As to `O=C(O)c1ccc(-c2ccc(C(=O)Nc3ccc(F)cc3)s2)cc1` [Compound 48], the ΔTm at 20 µM lay in the range of 0 to 2 °C.

Turning to `O=C(NC1CCCCC1)c1ccc(-c2ccc(O)cc2)s1` [Compound 49], the ΔTm at 20 µM lay within 2 to 4 °C.

For `CCOc1ccc(NC(=O)c2ccc(-c3cccc(N)c3)s2)cc1` [Compound 51], the ΔTm at 20 µM was greater than 4 °C.

Regarding `CCOc1ccc(NC(=O)c2ccc(-c3cccc(O)c3)s2)cc1` [Compound 52], the ΔTm at 20 µM was in the range of 2 to 4 °C.

For the compound `O=C(Nc1ccc2ccccc2c1)c1ccc(-c2cccc(O)c2)s1` [Compound 53], the ΔTm at 20 µM was greater than 4 °C.

For the compound `Nc1cccc(-c2ccc(C(=O)Nc3ccc4ccccc4c3)s2)c1` [Compound 54], the ΔTm at 20 µM lay within 2 to 4 °C.

On to `O=C(Nc1cccc(B(O)O)c1)c1ccc(-c2ccsc2)s1` [Compound 57], for which the ΔTm at 20 µM is greater than 4 °C.

Turning to `O=C(Nc1cccc(F)c1)c1ccc(-c2cnc(O)nc2)s1` [Compound 58], the ΔTm at 20 µM fell in the range of 0 to 2 °C.

`O=C(Nc1ccccc1F)c1ccc(-c2cccc(B(O)O)c2)s1` [Compound 59]: the ΔTm at 20 µM is 0 to 2 °C.

In the case of `O=C(Nc1cccc(F)c1)c1ccc(-c2ccc(O)c(C(F)(F)F)c2)s1` [Compound 61], the ΔTm at 20 µM is greater than 4 °C.

Regarding `O=C(Nc1ccccc1F)c1ccc(-c2cccc(O)c2)s1` [Compound 63], the ΔTm at 20 µM lay in the range of 0 to 2 °C.

For the compound `O=C(Nc1cccc(F)c1)c1ccc(-c2ccc3[nH]ccc3c2)s1` [Compound 66], the ΔTm at 20 µM was 2 to 4 °C.

Regarding `O=C(Nc1ccc(C(F)(F)F)cc1)c1ccc(-c2ccc(O)cc2)s1` [Compound 68], the ΔTm at 20 µM fell in the range of 0 to 2 °C.

Turning to `O=C(Nc1ccc(C(F)(F)F)cc1)c1ccc(-c2ccncc2)s1` [Compound 69], the ΔTm at 20 µM is 0 to 2 °C.

For `O=C(Nc1cccc(C(F)(F)F)c1)c1ccc(-c2ccncc2)s1` [Compound 70], the ΔTm at 20 µM was 0 to 2 °C.

With `O=C(Nc1cccc(C(F)(F)F)c1)c1ccc(-c2ccc(O)cc2)s1` [Compound 71], the ΔTm at 20 µM fell in the range of 0 to 2 °C.

Regarding `COc1ccc(NC(=O)c2ccc(-c3ccsc3)s2)cc1` [Compound 73], the ΔTm at 20 µM fell in the range of 0 to 2 °C.

As for `COc1cc(NC(=O)c2ccc(-c3ccc(Cl)cc3)s2)cc(OC)c1` [Compound 75], the ΔTm at 20 µM lay in the range of 0 to 2 °C.

On to `CC(C)Cc1ccc(-c2ccc(C(=O)Nc3ccc(Cl)cc3)s2)cc1` [Compound 76], for which the ΔTm at 20 µM was 0 to 2 °C.

Regarding `CC(C)Cc1ccc(-c2ccc(C(=O)Nc3cccnc3)s2)cc1` [Compound 77], the ΔTm at 20 µM was in the range of 0 to 2 °C.

As for `CC(C)Cc1ccc(-c2ccc(C(=O)Nc3ccncc3)s2)cc1` [Compound 78], the ΔTm at 20 µM was in the range of 2 to 4 °C.

As for `CC(C)Cc1ccc(-c2ccc(C(=O)Nc3ccc(O)cc3)s2)cc1` [Compound 79], the ΔTm at 20 µM lay in the range of 2 to 4 °C.

For the compound `Cc1ccc(-c2ccc(C(=O)Nc3ccc(Cl)cc3)s2)cc1C` [Compound 80], the ΔTm at 20 µM was 0 to 2 °C.

Turning to `Cc1ccc(-c2ccc(C(=O)Nc3cccnc3)s2)cc1C` [Compound 81], the ΔTm at 20 µM lay within 0 to 2 °C.

On to `Cc1ccc(-c2ccc(C(=O)Nc3ccncc3)s2)cc1C` [Compound 82], for which the ΔTm at 20 µM was in the range of 0 to 2 °C.

Regarding `Cc1ccc(-c2ccc(C(=O)Nc3ccc(O)cc3)s2)cc1C` [Compound 83], the ΔTm at 20 µM was 0 to 2 °C.

With `O=C(Nc1ccc(Cl)cc1)c1ccc(-c2ccccc2F)s1` [Compound 84], the ΔTm at 20 µM fell in the range of 2 to 4 °C.

As for `O=C(Nc1cccnc1)c1ccc(-c2ccccc2F)s1` [Compound 85], the ΔTm at 20 µM lay within 0 to 2 °C.

Take `O=C(Nc1ccncc1)c1ccc(-c2ccccc2F)s1` [Compound 86]: the ΔTm at 20 µM lay in the range of 0 to 2 °C.

`O=C(Nc1cccnc1)c1ccc(-c2cccc(F)c2)s1` [Compound 89]: the ΔTm at 20 µM lay in the range of 0 to 2 °C.

Take `O=C(Nc1ccncc1)c1ccc(-c2cccc(F)c2)s1` [Compound 90]: the ΔTm at 20 µM is 2 to 4 °C.

For the compound `O=C(Nc1ccc(Cl)cc1)c1ccc(-c2ccc(F)cc2)s1` [Compound 92], the ΔTm at 20 µM is 0 to 2 °C.

As for `O=C(Nc1cccnc1)c1ccc(-c2ccc(F)cc2)s1` [Compound 93], the ΔTm at 20 µM was in the range of 0 to 2 °C.

Take `O=C(Nc1ccncc1)c1ccc(-c2ccc(F)cc2)s1` [Compound 94]: the ΔTm at 20 µM lay within 0 to 2 °C.

As to `N#Cc1cccc(-c2ccc(C(=O)Nc3ccc(Cl)cc3)s2)c1` [Compound 96], the ΔTm at 20 µM is 0 to 2 °C.

In the case of `N#Cc1cccc(-c2ccc(C(=O)Nc3cccnc3)s2)c1` [Compound 97], the ΔTm at 20 µM was in the range of 0 to 2 °C.

Consider `N#Cc1cccc(-c2ccc(C(=O)Nc3ccc(O)cc3)s2)c1` [Compound 98], for which the ΔTm at 20 µM lay within 2 to 4 °C.

Consider `N#Cc1ccc(-c2ccc(C(=O)Nc3ccc(Cl)cc3)s2)cc1` [Compound 99], for which the ΔTm at 20 µM fell in the range of 0 to 2 °C.

For `N#Cc1ccc(-c2ccc(C(=O)Nc3cccnc3)s2)cc1` [Compound 100], the ΔTm at 20 µM was in the range of 0 to 2 °C.

Turning to `N#Cc1ccc(-c2ccc(C(=O)Nc3ccncc3)s2)cc1` [Compound 101], the ΔTm at 20 µM is 0 to 2 °C.

In the case of `N#Cc1ccc(-c2ccc(C(=O)Nc3ccc(O)cc3)s2)cc1` [Compound 102], the ΔTm at 20 µM was 2 to 4 °C.

Consider `O=C(Nc1cccnc1)c1ccc(-c2ccsc2)s1` [Compound 103], for which the ΔTm at 20 µM fell in the range of 0 to 2 °C.

Consider `O=C(Nc1cccnc1)c1ccc(-c2ccc3ccccc3c2)s1` [Compound 106], for which the ΔTm at 20 µM lay in the range of 2 to 4 °C.

Consider `O=C(Nc1ccc(Cl)cc1)c1ccc(-c2cccc(C(F)(F)F)c2)s1` [Compound 107], for which the ΔTm at 20 µM lay within 0 to 2 °C.

In the case of `O=C(Nc1cccnc1)c1ccc(-c2cccc(C(F)(F)F)c2)s1` [Compound 108], the ΔTm at 20 µM lay in the range of 0 to 2 °C.

Consider `O=C(Nc1ccncc1)c1ccc(-c2cccc(C(F)(F)F)c2)s1` [Compound 109], for which the ΔTm at 20 µM fell in the range of 2 to 4 °C.

On to `O=C(Nc1ccc(O)cc1)c1ccc(-c2cccc(C(F)(F)F)c2)s1` [Compound 110], for which the ΔTm at 20 µM was 2 to 4 °C.

In the case of `O=C(Nc1ccc(Cl)cc1)c1ccc(-c2ccc(C(F)(F)F)cc2)s1` [Compound 111], the ΔTm at 20 µM is 0 to 2 °C.

Turning to `O=C(Nc1cccnc1)c1ccc(-c2ccc(C(F)(F)F)cc2)s1` [Compound 112], the ΔTm at 20 µM lay in the range of 0 to 2 °C.
